Measurements taken from ChEMBL document CHEMBL4145634, “Discovery of Janus Kinase 2 (JAK2) and Histone Deacetylase (HDAC) Dual Inhibitors as a Novel Strategy for the Combinational Treatment of Leukemia and Invasive Fungal Infections” (J Med Chem, 2018).
The source made the active and inactive calls. The calls are words filed in the database; no cut-off is given here.

Legend:
[1] = biological target: T1, Tyrosine-protein kinase JAK3 (Homo sapiens, UniProt P52333); assay: Inhibition of JAK3 (unknown origin) using FAM-labeled peptide as substrate preincubated for 10 mins followed by substrate addition and measured after 25 mins in presence of ATP
T1 sequence (P52333 whole entry): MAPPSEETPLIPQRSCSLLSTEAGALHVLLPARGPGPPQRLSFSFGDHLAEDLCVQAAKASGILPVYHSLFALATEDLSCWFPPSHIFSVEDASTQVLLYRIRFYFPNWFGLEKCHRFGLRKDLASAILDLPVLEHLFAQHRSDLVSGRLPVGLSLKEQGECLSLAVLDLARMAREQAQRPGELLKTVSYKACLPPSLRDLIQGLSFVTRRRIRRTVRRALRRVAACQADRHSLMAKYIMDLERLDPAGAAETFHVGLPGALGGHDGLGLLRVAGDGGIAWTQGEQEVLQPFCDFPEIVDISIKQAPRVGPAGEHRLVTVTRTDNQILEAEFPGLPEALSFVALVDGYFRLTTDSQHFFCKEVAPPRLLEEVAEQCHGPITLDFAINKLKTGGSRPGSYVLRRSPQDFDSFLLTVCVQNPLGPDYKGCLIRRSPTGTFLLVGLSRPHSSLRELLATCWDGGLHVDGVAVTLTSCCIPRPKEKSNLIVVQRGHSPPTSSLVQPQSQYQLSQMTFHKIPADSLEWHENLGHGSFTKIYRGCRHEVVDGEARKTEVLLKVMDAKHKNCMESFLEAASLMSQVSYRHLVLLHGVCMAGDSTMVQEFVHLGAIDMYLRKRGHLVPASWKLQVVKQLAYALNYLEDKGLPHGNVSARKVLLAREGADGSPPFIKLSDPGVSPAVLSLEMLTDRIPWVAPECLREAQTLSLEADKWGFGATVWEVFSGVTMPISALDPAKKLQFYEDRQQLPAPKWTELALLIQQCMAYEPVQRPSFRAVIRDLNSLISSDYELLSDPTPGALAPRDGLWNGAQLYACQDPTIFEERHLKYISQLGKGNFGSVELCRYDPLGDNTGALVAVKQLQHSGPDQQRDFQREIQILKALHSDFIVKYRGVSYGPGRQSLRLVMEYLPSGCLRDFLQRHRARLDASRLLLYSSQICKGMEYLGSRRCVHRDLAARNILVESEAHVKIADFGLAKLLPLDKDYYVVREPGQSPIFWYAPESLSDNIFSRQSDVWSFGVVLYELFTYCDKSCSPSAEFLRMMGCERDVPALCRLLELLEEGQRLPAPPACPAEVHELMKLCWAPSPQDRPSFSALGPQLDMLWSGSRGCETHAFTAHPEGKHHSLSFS

[2] = biological target: T2, Protein deacetylase HDAC6 (Homo sapiens, UniProt Q9UBN7); assay: Inhibition of full length human recombinant HDAC6 expressed in Baculovirus infected Sf9 cells using (Ac-Leu-Gly-Lys(Ac)-AMC as substrate preincubated for 5 mins followed by substrate addition and measured after 30 mins by fluorescence assay
T2 sequence (Q9UBN7 whole entry): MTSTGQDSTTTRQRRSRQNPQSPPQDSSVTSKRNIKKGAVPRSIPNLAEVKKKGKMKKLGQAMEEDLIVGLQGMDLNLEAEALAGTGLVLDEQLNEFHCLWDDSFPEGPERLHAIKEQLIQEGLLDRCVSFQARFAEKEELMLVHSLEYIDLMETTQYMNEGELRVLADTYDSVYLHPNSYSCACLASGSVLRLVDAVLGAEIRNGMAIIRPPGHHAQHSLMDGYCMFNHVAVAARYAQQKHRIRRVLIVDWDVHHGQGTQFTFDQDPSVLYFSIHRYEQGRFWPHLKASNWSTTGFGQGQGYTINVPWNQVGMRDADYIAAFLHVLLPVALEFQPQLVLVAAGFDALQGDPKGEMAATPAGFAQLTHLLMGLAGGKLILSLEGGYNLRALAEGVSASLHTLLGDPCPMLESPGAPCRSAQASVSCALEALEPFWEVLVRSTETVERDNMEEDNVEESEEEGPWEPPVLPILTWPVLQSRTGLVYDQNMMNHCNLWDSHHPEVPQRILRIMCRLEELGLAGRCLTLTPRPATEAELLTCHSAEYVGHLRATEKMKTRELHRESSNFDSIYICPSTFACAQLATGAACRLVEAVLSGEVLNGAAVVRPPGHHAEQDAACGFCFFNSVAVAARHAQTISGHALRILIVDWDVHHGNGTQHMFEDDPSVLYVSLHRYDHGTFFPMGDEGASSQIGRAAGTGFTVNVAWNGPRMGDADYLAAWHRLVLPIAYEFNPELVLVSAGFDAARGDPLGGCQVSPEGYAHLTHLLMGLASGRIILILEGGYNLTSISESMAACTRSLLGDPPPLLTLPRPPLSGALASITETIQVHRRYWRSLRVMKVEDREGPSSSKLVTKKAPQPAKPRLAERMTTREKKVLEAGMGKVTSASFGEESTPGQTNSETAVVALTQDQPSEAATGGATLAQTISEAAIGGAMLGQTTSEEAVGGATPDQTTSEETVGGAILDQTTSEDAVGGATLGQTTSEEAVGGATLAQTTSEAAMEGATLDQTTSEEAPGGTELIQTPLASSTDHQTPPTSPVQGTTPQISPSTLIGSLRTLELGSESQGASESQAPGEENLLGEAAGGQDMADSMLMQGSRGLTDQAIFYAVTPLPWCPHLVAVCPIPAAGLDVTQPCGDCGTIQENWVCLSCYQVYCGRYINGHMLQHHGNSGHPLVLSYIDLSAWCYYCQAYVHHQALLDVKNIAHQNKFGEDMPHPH

Histone deacetylase 8 = biological target: T3, Histone deacetylase 8 (Homo sapiens, UniProt Q9BY41); assay: Inhibition of full length recombinant C-terminal His tagged human HDAC8 expressed in Baculovirus infected Sf9 cells using Ac-Leu-Gly-Lys(Tfa)-AMC as substrate preincubated for 5 mins followed by substrate addition and measured after 30 mins by fluorescence assay
T3 sequence (Q9BY41 whole entry): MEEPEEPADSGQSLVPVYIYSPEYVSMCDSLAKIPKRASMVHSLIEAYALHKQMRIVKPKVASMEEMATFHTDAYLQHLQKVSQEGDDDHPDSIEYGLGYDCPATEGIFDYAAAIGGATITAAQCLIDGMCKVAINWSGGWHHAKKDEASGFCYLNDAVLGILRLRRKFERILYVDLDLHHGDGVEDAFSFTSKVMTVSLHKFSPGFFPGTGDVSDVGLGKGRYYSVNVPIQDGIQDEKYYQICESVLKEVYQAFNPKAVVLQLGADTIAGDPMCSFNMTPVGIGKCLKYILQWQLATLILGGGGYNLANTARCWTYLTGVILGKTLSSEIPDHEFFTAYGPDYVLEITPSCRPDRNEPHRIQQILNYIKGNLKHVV

Candida albicans = assay: Antifungal activity against FLC resistant Candida albicans 0304103 at 32 ug/ml up to 24 hrs in presence of fluconazol by checkerboard microdilution method; type: functional, organism-based
Mus musculus = assay: In vivo antifungal activity against FLC resistant Candida albicans 0304103 infected in ICR mouse assessed as mouse survival at 5 mg/kg, ip qd up to 20 days in co-treated with 1 mg/kg, ip qd fluconazol (reference value: 4.5 day); type: functional

SMILES | IC50 [1] [nM] | IC50 [2] [nM] | IC50 (Histone deacetylase 8) [nM] | Activity (Candida albicans) | MST (Mus musculus) [days]
CS(=O)(=O)Nc1ccc(-c2ccnc(Nc3ccc(N4CCC(C(=O)NCCCCCCCC(=O)NO)CC4)cc3)n2)cc1 | 144 | 74 | 572 | Active | 13
CS(=O)(=O)Nc1ccc(-c2ccnc(Nc3ccc(N4CCC(C(=O)Nc5ccc(/C=C/C(=O)NO)cc5)CC4)cc3)n2)cc1 | 121 | 46 | 6070 | Active | 11.5
O=C(NO)c1ccc(-c2ccnc(Nc3ccc(N4CCOCC4)cc3)n2)cc1 | 517 | 419 | 609 | Active | 11
